Assay results as given in ChEMBL document CHEMBL1201862, “PubChem BioAssay data set” (2004).
The source made the active and inactive calls.

Legend:
Coagulation factor XII = target: T1, Coagulation factor XII (Homo sapiens, UniProt P00748); type: functional;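 further: activated factor XIIa alpha cleaving a fluorogenic AMC peptide substrate; inhibitor potency from loss of enzyme activity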
T1 sequence (P00748 whole entry): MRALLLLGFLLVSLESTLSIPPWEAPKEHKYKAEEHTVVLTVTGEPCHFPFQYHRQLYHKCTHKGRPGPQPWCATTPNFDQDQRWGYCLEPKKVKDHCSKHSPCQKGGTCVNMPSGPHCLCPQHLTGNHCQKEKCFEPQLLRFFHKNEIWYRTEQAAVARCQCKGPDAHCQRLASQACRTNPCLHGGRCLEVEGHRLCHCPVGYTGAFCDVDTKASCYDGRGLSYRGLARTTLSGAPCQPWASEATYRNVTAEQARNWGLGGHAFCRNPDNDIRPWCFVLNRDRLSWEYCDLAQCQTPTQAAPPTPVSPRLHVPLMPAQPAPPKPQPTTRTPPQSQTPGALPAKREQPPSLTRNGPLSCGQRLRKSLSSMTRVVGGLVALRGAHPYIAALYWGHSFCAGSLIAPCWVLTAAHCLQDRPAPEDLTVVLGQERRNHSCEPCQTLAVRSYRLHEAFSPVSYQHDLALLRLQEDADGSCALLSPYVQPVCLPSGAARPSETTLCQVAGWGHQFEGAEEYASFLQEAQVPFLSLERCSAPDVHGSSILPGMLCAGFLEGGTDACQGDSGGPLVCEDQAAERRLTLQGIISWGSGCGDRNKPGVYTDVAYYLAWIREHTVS

Cytochrome P450 1A2 = target: T2, Cytochrome P450 1A2 (Homo sapiens, UniProt P05177);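 further: PubChem cytochrome P450 panel assay, CYP1A2 panel member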
T2 sequence (P05177 whole entry): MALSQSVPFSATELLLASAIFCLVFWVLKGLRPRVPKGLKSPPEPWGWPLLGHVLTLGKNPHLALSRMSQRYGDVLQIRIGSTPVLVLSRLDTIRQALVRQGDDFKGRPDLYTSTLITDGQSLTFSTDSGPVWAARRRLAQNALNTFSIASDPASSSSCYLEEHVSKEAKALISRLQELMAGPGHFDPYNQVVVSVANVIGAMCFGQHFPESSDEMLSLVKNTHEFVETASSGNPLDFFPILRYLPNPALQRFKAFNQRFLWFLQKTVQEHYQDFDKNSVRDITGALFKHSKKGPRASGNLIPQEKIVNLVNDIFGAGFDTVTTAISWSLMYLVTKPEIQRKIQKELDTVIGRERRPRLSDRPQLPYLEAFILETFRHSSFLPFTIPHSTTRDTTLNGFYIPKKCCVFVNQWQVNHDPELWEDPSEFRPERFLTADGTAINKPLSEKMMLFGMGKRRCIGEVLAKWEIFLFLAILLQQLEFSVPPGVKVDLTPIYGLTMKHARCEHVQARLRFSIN

Cytochrome P450 2C9 = Cytochrome P450 2C9 (Homo sapiens, UniProt P11712)
Cytochrome P450 2D6 = Cytochrome P450 2D6 (Homo sapiens, UniProt P10635);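 further: CYP2D6 member of a cytochrome P450 panel assay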
[1] = target: T3, Heat shock factor protein 1 (Mus musculus, UniProt P38532); experiment: enhancement of HSF1-driven luciferase signal – cell-based, NIH3T3, luminescence, dose retest, confirmation (AID 435004); type: functional;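 further: stress induced by proteasome inhibitor MG132 added 30 min after compound; luciferase reporter driven by HSF1 response element in NIH3T3 cells; actives raise luminescence as potentiators of the MG132 stress response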
T3 sequence (P38532 whole entry): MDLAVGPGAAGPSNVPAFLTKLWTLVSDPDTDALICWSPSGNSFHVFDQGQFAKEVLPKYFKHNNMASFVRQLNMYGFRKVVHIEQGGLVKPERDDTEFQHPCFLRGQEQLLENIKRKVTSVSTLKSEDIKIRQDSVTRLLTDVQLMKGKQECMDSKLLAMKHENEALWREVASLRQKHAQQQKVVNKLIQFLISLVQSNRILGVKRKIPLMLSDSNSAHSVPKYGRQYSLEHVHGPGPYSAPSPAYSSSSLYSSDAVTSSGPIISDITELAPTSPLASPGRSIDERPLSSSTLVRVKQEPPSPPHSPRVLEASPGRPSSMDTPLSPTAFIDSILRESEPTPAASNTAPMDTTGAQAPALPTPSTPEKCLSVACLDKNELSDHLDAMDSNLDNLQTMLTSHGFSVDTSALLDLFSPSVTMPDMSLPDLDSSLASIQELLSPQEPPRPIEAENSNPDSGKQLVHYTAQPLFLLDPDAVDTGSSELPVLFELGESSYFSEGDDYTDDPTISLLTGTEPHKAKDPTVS

Cytochrome P450 2C19 = Cytochrome P450 2C19 (Homo sapiens, UniProt P33261); experiment: Cytochrome panel assay with activity outcomes. Panel member name: p450-cyp2c19 Compounds with AC50 equal or less than 10 uM are considered active; type: functional; settings: read-out: AC50
Cytochrome P450 3A4 = Cytochrome P450 3A4 (Homo sapiens, UniProt P08684);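 further: CYP3A4 tested as one member of a cytochrome P450 panel screen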
[2] = target: Heat shock protein HSP 90-alpha (Homo sapiens, UniProt P07900); type: functional, organism-based
[3] = tested on: Streptococcus sp. 'group A'; experiment: Streptococcus pyogenes SK(-)GAS viability under kanamycin – luminescence, BacTiterGlo, confirmation, counter-screen for streptokinase expression inhibitor project, dose response (AID 1900); type: functional, organism-based
Streptokinase A = target: T4, Streptokinase A (Streptococcus pyogenes serotype M1, UniProt P10520); experiment: viability-normalized secreted streptokinase activity reduction – plasminogen activation absorbance, OD405, dose response (AID 1914); type: functional, Streptococcus pyogenes M1 GAS;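 further: secreted streptokinase activity via plasminogen activation per viability signal from cell pellet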
T4 sequence (P10520 whole entry): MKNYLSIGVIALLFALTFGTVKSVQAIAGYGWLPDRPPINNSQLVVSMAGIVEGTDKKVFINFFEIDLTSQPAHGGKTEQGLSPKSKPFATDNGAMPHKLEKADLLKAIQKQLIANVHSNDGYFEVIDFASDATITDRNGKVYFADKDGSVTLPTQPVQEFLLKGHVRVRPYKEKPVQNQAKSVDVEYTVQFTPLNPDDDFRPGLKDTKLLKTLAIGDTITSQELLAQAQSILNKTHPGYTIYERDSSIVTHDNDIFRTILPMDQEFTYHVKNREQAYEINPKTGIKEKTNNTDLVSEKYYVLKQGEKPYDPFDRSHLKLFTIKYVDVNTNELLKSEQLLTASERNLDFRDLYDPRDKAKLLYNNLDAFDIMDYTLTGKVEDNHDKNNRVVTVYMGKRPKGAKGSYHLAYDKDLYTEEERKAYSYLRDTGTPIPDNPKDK

Streptococcus = experiment: GAS UMAA2166 growth inhibition – luminescence, BacTiterGlo, counter-screen for streptokinase expression inhibitor project, dose response (AID 1915); type: functional, organism-based;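 further: potency for reduction of bacterial viability or growth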
[4] = Luminescence Cell-Based Dose Retest to Confirm Inhibitors of Cancer Stem Cells. [Related pubchem assays (depositor defined):AID2717, AID2721]; type: functional; settings: Homo sapiens

Sequence of Cytochrome P450 2D6 (P10635 whole entry): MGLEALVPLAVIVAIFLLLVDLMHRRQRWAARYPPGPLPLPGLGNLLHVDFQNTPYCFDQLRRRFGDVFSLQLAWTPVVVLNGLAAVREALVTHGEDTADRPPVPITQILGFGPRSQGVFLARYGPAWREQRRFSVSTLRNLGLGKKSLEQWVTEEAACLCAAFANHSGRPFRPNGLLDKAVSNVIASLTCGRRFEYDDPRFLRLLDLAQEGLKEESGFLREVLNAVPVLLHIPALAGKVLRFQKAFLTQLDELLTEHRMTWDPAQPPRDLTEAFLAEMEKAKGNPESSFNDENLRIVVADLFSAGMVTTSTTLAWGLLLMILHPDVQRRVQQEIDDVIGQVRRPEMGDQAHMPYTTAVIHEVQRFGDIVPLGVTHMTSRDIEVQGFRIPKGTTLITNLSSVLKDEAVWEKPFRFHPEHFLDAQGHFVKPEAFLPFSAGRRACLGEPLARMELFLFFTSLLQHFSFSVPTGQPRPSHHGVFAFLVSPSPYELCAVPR
Sequence of Cytochrome P450 2C19 (P33261 whole entry): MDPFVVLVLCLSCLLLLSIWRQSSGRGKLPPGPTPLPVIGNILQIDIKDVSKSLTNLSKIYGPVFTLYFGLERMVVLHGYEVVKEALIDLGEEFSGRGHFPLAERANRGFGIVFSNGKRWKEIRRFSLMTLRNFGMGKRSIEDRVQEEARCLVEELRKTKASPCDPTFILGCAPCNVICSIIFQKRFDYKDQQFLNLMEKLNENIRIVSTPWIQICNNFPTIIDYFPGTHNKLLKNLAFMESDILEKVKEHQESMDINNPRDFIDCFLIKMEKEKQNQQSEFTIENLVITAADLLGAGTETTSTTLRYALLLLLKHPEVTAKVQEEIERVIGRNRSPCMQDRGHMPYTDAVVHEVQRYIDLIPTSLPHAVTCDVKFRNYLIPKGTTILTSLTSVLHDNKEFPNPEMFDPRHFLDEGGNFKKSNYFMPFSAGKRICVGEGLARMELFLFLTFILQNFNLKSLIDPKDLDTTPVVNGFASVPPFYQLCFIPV
Sequence of Cytochrome P450 2C9 (P11712 whole entry): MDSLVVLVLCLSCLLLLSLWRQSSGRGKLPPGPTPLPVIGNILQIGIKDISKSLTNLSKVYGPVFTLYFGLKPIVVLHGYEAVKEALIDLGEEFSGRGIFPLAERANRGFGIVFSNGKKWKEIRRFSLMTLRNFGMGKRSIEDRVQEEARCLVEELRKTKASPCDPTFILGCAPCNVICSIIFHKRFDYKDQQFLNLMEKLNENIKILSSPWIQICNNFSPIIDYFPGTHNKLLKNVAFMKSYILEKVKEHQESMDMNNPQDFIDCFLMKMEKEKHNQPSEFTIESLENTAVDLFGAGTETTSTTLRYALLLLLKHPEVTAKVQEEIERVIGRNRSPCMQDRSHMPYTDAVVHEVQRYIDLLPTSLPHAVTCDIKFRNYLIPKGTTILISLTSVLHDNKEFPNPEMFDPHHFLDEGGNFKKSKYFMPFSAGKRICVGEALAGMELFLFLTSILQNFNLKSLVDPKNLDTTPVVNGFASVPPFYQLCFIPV
Sequence of Cytochrome P450 3A4 (P08684 whole entry): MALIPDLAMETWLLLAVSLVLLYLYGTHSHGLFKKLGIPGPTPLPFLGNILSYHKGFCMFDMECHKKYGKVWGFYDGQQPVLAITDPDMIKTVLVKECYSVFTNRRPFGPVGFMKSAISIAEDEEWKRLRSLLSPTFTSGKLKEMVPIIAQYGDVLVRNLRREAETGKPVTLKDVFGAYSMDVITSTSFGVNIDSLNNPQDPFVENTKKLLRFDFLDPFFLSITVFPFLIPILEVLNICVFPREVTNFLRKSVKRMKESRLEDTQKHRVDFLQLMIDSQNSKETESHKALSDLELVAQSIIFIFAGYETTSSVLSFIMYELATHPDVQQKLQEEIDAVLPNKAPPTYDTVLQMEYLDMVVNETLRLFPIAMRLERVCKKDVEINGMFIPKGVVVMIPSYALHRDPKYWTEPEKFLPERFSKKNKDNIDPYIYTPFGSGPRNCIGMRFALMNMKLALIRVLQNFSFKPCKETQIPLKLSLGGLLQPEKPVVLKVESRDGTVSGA

Which IC50 (Coagulation factor XII) does the source give for `NC(=O)c1c(N)sc2c1CCC2` here?
The IC50 was > 50 µM (inactive).

Which AC50 (Cytochrome P450 1A2) does the source give for `CCOc1ccccc1NC(=O)C1Cc2ccccc2CN1S(C)(=O)=O` (centres undefined) here?
The AC50 was 39.8 µM (inconclusive).

What about the AC50 (Cytochrome P450 2C9) of the same compound?
Its AC50 is “inconclusive”.

Which IC50 (Coagulation factor XII) does the source give for `Cc1ccc(C(=O)NCCNc2ccc(Cl)cc2[N+](=O)[O-])o1` here?
Its IC50 is > 50 µM (inactive).

What about the AC50 (Cytochrome P450 2D6) of the same compound?
The AC50 was 20 µM (inconclusive).

For `O=C(CF)NC(NC(S)=Nc1ccccc1O)C(Cl)(Cl)Cl` (centres undefined), which EC50 [1] is on record?
Its EC50 is > 260 µM (inactive).

Which EC50 [1] does the source give for `O=C(CSC1=NCCN1)Nc1cccc(C(F)(F)F)c1` here?
The EC50 was > 260 µM (inactive).

With `Cc1csc(NC(=O)C(CC(C)C)NS(=O)(=O)c2ccc3c(c2)oc(=O)n3C)n1` (centres undefined) as the compound, how does the IC50 (Coagulation factor XII) read?
The IC50 was > 50 µM (inactive).

For `COc1ccccc1NC(=O)c1ccc(-n2cccn2)nc1`, which AC50 (Cytochrome P450 2C19) is on record?
The AC50 was 25.1 µM (inconclusive).

And the AC50 (Cytochrome P450 2C9)?
The AC50 was “inconclusive”.

For `O=C(CS(=O)(=O)c1cn(Cc2ccc(Cl)cc2)c2ccccc12)N1CCOCC1`, which IC50 (Coagulation factor XII) is on record?
Its IC50 is > 50 µM (inactive).

For `COc1ccc2c(c1)CCc1sc(NC(=O)c3ccc(C)cc3)nc1-2`, which IC50 (Coagulation factor XII) is on record?
The IC50 was > 50 µM (inactive).

For `Nc1ccccc1Oc1ncc(C(F)(F)F)cc1Cl`, which AC50 (Cytochrome P450 2C9) is on record?
Its AC50 is “inconclusive”.

For `Cc1ccc2c(c1)N(CCC(=O)NCC1CCCO1)C(=O)CO2` (centres undefined), which AC50 (Cytochrome P450 3A4) is on record?
The AC50 was 25.1 µM (inconclusive).

What about the AC50 (Cytochrome P450 2C9) of the same compound?
Its AC50 is “inconclusive”.

Which results are given for `CN(C)c1ccc(-c2nc(N(C)C)c3ccccc3n2)cc1`?
AC50 (Cytochrome P450 2C19): 39.8 µM (inconclusive); AC50 (Cytochrome P450 2C9): inconclusive

Which results are given for `COCCNc1cc(-c2ccccc2CN(C)C)ncn1`?
AC50 (Cytochrome P450 2D6): 31.6 µM (inconclusive); AC50 (Cytochrome P450 2C9): inconclusive

For `CCOC(=O)CC(NC(=O)C1c2ccccc2Oc2ccccc21)c1ccccc1Cl` (centres undefined), which EC50 [1] is on record?
Its EC50 is > 260 µM (inactive).

For `COc1cc2c(cc1OC)C(=O)N1[C@H]3c4ccccc4OC[C@@H]3[C@H](c3ccccc3)[C@]1(C)C(=O)N2`, which AC50 [2] is on record?
The AC50 was 9.07 µM (active).

With `CC(C)(C)c1cc(NCc2ccccn2)n2ncc(-c3ccccc3)c2n1` as the compound, how does the EC50 [3] read?
Its EC50 is 0.722 µM (active).

And the EC50 (Streptokinase A)?
Its EC50 is 30 µM (active).

What about the EC50 (Streptococcus) of the same compound?
Its EC50 is 13.8 µM (active).

What about the AC50 [4] of the same compound?
The AC50 was 6.82 µM (active).

What about the AC50 [2] of the same compound?
The AC50 was 1.63 µM (active).

With `Cc1nc(-c2ccc(Cl)cc2)sc1C(=O)CBr` as the compound, how does the EC50 [1] read?
The EC50 was 70.2 µM (active).

For `Cc1cc(C)c2cc(C(=O)N(C)C3CCN(C)CC3)[nH]c2c1`, which EC50 [1] is on record?
Its EC50 is > 260 µM (inactive).

For `Cn1nnnc1SCCNC/C=C/c1ccccc1`, which EC50 [1] is on record?
The EC50 was > 260 µM (inactive).

Which results are given for `Cc1cc(C(=O)CC#N)c(C)n1CC(F)(F)F`?
AC50 (Cytochrome P450 2C19): 22.4 µM (inconclusive); AC50 (Cytochrome P450 2C9): inconclusive

Which IC50 (Coagulation factor XII) does the source give for `Cc1nc(O)nc(O)c1/C=N/NC(=O)[C@@H](N)CC(C)C` here?
The IC50 was > 50 µM (inactive).

With `C=CCOc1ccccc1OC[C@H](O)CNC(C)C` [OXPRENOLOL] as the compound, how does the AC50 (Cytochrome P450 2D6) read?
Its AC50 is 7.94 µM (inconclusive).

What about the AC50 (Cytochrome P450 2C9) of the same compound?
The AC50 was “inconclusive”.
